From patent US6365605B1, “Substituted hydrochromenopyrroles” (Les Laboratoires Servier, priority 1997, dated 2002) come the findings set out here.

A value given as a limit tells only on which side of the number the result lay.

In the experiment the target is T1, D3 receptors (expressed in CHO cells) (Homo sapiens, UniProt P35462).
T1 construct: expressed in transfected cells
Kind of experiment: In vitro measurement of the affinity to D2 and D3 receptors, [125I]-iodosulpiride radioligand, membrane preparations. The settings on record: difference of pKi, D3 vs D2 receptors expressed in CHO cells. In kind it is binding. The protocol: The affinity of the compounds of the invention to D2 and D3 receptors (expressed independently and in a stable manner in CHO cells) was determined with membrane preparations using [^125I]-iodosulpiride as radioligand (Sokoloff et al., quoted reference). The results are expressed as pKi.

T1 sequence (P35462 whole entry): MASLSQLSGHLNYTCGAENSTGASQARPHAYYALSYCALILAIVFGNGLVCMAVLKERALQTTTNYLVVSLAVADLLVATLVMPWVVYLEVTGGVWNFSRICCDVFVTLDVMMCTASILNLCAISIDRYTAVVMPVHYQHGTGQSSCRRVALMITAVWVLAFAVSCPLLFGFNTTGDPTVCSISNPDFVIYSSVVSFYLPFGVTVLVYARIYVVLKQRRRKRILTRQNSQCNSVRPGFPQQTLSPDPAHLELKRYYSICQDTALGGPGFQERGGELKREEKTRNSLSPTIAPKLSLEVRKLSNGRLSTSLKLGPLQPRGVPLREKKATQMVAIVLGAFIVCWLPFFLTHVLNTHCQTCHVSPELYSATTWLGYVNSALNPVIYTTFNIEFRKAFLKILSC

Consider `CC(=O)Nc1ccc(CCN2CC3COc4ccc(C#N)cc4C3C2)cc1.Cl` (stereo not shown) [Example 4, (3aα,9bβ)-2-[2-(4-Acetylaminophenyl)ethyl]-8-cyano-1,2,3,3a,4,9b-hexahydrochromeno[3,4-c]pyrrole hydrochloride], for which the “selectivity for D3 receptors compared with D2 receptors” value is over 1.5 log.
